Results as given in patent publication US20240294545A1 (CSPC Zhongqi Pharmaceutical Technology (Shijiazhuang) Co., …, priority 2020, published 2024).

biological target: ATM (Homo sapiens (Human), UniProt Q13315); assay: Caliper mobility shift assay for ATM; format: biochemical; conditions: read-out: IC50 of inhibitory activity on ATM kinase
Method: 1.2 Determination of the Inhibitory Activities of Compounds on ATM: Caliper Mobility Shift Assay for ATM
To a 96-well plate, 98 μL of DMSO and 2 μL of the 10 mM stock solution were added and mixed evenly so that the concentration of the solution was 200 μM.
Based on the inhibitory rates of the compound at different concentrations, IC50 was calculated according to the formula: Y=Bottom+(Top−Bottom)/(1+(IC50/X)^HillSlope).

Sequence of ATM (Q13315 whole entry): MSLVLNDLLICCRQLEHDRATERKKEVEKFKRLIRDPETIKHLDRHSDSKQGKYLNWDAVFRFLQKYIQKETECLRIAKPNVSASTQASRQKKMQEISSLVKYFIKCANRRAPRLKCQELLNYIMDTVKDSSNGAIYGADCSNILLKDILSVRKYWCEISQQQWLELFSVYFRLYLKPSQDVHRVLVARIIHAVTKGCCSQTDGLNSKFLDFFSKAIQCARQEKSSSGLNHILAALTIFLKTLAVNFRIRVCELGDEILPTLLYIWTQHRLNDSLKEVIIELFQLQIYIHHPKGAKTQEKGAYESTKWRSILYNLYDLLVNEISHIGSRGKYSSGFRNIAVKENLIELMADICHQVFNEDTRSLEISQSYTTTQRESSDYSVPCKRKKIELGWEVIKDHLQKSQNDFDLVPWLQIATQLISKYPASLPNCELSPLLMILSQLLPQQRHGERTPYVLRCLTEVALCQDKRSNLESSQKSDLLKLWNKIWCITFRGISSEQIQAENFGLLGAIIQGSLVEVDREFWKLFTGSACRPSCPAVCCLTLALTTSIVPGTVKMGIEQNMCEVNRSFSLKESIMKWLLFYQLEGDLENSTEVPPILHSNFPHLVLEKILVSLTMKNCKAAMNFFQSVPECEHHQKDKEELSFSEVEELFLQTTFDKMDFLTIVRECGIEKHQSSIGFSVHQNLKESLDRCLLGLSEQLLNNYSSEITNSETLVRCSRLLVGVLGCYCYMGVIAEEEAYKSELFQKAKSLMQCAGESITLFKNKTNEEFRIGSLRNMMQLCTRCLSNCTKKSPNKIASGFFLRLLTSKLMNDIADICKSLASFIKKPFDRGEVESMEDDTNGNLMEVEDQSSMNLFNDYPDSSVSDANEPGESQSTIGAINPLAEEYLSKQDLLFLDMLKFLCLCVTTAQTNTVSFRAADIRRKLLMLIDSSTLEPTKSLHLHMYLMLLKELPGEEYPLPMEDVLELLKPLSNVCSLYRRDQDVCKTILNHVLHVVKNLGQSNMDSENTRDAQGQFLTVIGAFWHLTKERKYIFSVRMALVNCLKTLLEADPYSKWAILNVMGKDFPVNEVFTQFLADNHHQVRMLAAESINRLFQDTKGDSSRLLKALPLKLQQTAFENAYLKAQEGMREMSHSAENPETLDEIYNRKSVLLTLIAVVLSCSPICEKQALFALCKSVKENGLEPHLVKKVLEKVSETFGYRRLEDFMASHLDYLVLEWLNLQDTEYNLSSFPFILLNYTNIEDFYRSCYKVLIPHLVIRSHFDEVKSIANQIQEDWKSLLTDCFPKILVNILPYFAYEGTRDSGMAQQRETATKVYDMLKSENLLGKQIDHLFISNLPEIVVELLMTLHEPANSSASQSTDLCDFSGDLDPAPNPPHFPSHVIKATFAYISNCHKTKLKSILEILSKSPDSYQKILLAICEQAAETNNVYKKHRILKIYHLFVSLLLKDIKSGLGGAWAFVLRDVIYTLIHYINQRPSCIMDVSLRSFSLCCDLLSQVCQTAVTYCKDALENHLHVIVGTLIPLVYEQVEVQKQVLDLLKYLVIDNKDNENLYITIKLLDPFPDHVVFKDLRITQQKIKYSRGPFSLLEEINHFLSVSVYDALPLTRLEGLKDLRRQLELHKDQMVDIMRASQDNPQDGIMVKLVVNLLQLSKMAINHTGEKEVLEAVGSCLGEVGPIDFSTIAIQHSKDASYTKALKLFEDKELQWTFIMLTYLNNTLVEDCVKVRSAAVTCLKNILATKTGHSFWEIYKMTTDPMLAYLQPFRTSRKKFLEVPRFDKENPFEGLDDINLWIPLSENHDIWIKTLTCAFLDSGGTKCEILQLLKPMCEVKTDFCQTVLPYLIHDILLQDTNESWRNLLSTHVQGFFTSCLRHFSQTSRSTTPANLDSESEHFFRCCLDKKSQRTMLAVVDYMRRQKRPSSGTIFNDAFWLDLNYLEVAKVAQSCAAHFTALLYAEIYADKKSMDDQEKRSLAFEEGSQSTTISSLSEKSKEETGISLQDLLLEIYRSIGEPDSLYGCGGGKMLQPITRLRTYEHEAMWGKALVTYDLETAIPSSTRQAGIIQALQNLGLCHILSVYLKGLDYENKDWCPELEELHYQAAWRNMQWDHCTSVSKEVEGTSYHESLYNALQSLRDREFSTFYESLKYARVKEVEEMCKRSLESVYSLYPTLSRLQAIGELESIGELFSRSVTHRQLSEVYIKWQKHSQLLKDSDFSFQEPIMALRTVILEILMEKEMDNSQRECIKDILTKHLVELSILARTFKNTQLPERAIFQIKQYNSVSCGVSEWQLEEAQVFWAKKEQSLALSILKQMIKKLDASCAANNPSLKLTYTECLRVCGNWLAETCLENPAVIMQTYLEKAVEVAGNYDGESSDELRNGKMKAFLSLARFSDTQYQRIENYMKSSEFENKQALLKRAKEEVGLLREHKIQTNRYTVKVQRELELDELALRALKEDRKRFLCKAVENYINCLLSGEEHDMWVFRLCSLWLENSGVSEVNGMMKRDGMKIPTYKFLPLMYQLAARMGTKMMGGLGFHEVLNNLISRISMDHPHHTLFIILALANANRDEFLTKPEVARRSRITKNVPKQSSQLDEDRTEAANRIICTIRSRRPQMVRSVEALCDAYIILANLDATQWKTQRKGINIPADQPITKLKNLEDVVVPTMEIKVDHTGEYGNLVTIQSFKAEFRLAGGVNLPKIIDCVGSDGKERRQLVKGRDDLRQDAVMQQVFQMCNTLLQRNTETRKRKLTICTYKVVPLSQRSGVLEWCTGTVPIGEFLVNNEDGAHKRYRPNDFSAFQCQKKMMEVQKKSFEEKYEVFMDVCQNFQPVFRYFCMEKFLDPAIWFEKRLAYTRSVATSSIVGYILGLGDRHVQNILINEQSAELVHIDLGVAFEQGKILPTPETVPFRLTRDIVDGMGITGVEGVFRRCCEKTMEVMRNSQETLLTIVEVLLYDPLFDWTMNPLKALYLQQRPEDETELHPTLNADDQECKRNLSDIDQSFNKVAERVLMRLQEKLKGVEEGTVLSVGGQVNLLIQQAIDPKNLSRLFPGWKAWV

SMILES	IC50 [nM]
Cn1c(=O)n2c3c4c(c(-c5ccc(OCCCN6CCCCC6)nc5)c(F)cc4ncc31)OCCC2 [Compound A-154]	0.71
C[C@H]1COc2c(-c3ccc(OCCCN4CCCCC4)nc3)c(F)cc3ncc4c(c23)n1c(=O)n4C [Example A-1, (S)-6-fluoro-2,10-dimethyl-7-(6-(3-(piperidin-1-yl)propoxy)pyridin-3-yl)-9,10-dihydro-8-oxa-2,4,10a-triazanaphtho[2,1,8-cde]azulen-1(2H)-one]	0.79
C[C@@H]1COc2c(-c3ccc(OCCCN4CCCCC4)nc3)c(F)cc3ncc4c(c23)n1c(=O)n4C [Example A-4, (R)-6-fluoro-2,10-dimethyl-7-(6-(3-(piperidin-1-yl)propoxy)pyridin-3-yl)-9,10-dihydro-8-oxa-2,4,10a-triazanaphtho[2,1,8-cde]azulen-1(2H)-one]	0.9
CC(C)C[C@H]1COc2c(-c3ccc(OCCCN4CCCCC4)nc3)c(F)cc3ncc4c(c23)n1c(=O)n4C [Example A-9, (S)-6-fluoro-10-isobutyl-2-methyl-7-(6-(3-(piperidin-1-yl)propoxy)pyridin-3-yl)-9,10-dihydro-8-oxa-2,4,10a-triazanaphtho[2,1,8-cde]azulen-1(2H)-one]	0.2
Cn1c(=O)n2c3c4c(c(-c5ccc(OCCCN6CCCCC6)nc5)c(F)cc4ncc31)OCC21CC1 [Example A-11, 6-fluoro-2-methyl-7-(6-(3-(piperidin-1-yl)propoxy)pyridin-3-yl)-2,9-dihydro-1H-spiro[8-oxa-2,4,10a-triazanaphtho[2,1,8-cde]azulene-10,1-cyclopropan]-1-one]	0.54
Cn1c(=O)n2c3c4c(c(-c5ccc(OCCCN6CCCCC6)nc5)c(F)cc4ncc31)OC[C@@H]2Cc1ccccc1 [Example A-13, (S)-10-benzyl-6-fluoro-2-methyl-7-(6-(3-(piperidin-1-yl)propoxy)pyridin-3-yl)-9,10-dihydro-8-oxa-2,4,10a-triazanaphtho[2,1,8-cde]azulen-1(2H)-one]	0.4
Cn1c(=O)n2c3c4c(c(-c5ccc(OCCCN6CCCCC6)nc5)c(F)cc4ncc31)OC[C@H]2Cc1ccccc1 [Example A-14, (R)-10-benzyl-6-fluoro-2-methyl-7-(6-(3-(piperidin-1-yl)propoxy)pyridin-3-yl)-9,10-dihydro-8-oxa-2,4,10a-triazanaphtho[2,1,8-cde]azulen-1(2H)-one]	0.42
CC[C@H]1COc2c(-c3ccc(OCCCN4CCCCC4)nc3)c(F)cc3ncc4c(c23)n1c(=O)n4C [Example A-23, (S)-10-ethyl-6-fluoro-2-methyl-7-(6-(3-(piperidin-1-yl)propoxy)pyridin-3-yl)-9,10-dihydro-8-oxa-2,4,10a-triazanaphtho[2,1,8-cde]azulen-1(2H)-one]	0.42
Cn1c(=O)n2c3c4c(c(-c5ccc(OCCCN6CCCCC6)nc5)c(F)cc4ncc31)OCC2C1CC1 (stereo not shown) [Example A-27, 10-cyclopropyl-6-fluoro-2-methyl-7-(6-(3-(piperidin-1-yl)propoxy)pyridin-3-yl)-9,10-dihydro-8-oxa-2,4,10a-triazanaphtho[2,1,8-cde]azulen-1(2H)-one]	0.28
Cn1c(=O)n2c3c4c(c(-c5ccc(OCCCN6CCCCC6)nc5)c(F)cc4ncc31)OCC21CCC1 [Example A-28, 6-fluoro-2-methyl-7-(6-(3-(piperidin-1-yl)propoxy)pyridin-3-yl)-2,9-dihydro-1H-spiro[8-oxa-2,4,10a-triazanaphtho[2,1,8-cde]azulene-10,1′-cyclobutan]-1-one]	0.28
COc1cc2ncc3c4c2c(c1-c1cnn(C)c1)OCC(c1ccccn1)n4c(=O)n3C (stereo not shown) [Example A-30, 6-methoxy-2-methyl-7-(1-methyl-1H-pyrazol-4-yl)-10-(pyridin-2-yl)-9,10-dihydro-8-oxa-2,4,10a-triazanaphtho[2,1,8-cde]azulen-1(2H)-one]	0.27
COc1cc2ncc3c4c2c(c1-c1ccc(OCCCN2CCCCC2)nc1)OC[C@@H](C)n4c(=O)n3C [Example A-32, (R)-6-methoxy-2,10-dimethyl-7-(6-(3-(piperidin-1-yl)propoxy)pyridin-3-yl)-9,10-dihydro-8-oxa-2,4,10a-triazanaphtho[2,1,8-cde]azulen-1(2H)-one]	0.94
COCC1COc2c(-c3ccc(OCCCN4CCCCC4)nc3)c(F)cc3ncc4c(c23)n1c(=O)n4C (stereo not shown) [Example A-49, 6-fluoro-10-(methoxymethyl)-2-methyl-7-(6-(3-(piperidin-1-yl)propoxy)pyridin-3-yl)-9,10-dihydro-8-oxa-2,4,10a-triazanaphtho[2,1,8-cde]azulen-1(2H)-one]	0.86
Cn1c(=O)n2c3c4c(c(-c5ccc(OCCCN6CCCCC6)nc5)ccc4ncc31)OCC2(C)C [Example A-67, 2,10,10-trimethyl-7-(6-(3-(piperidin-1-yl)propoxy)pyridin-3-yl)-9,10-dihydro-8-oxa-2,4,10a-triazanaphtho[2,1,8-cde]azulen-1(2H)-one]	0.26
C[C@H]1COc2c(-c3ccc(N4CCC(N(C)C)CC4)nc3)c(F)cc3ncc4c(c23)n1c(=O)n4C [Example A-159, (S)-7-(6-(4-(dimethylamino)piperidin-1-yl)pyridin-3-yl)-6-fluoro-2,10-dimethyl-9,10-dihydro-8-oxa-2,4,10a-triazanaphtho[2,1,8-cde]azulen-1(2H)-one]	0.92
Cn1c(=O)n2c3c4c(c(-c5ccc(OCCCN6CC[C@H](C#N)C6)nc5)c(F)cc4ncc31)OCC21CCC1 [Example A-160]	0.43
Cn1c(=O)n2c3c4c(c(-c5ccc(OCCCN6CC[C@H](F)C6)nc5)c(F)cc4ncc31)OCC21CCC1 [Example A-161, (S)-6-fluoro-7-(6-(3-(3-fluoropyrrolidin-1-yl)propoxy)pyridin-3-yl)-2-methyl-2,9-dihydro-1H-spiro[8-oxa-2,4,10a-triazanaphtho[2,1,8-cde]azulene-10,1′-cyclobutan]-1-one]	0.32
Cn1c(=O)n2c3c4c(c(-c5ccc(OCCCN6CCCC6)nc5)c(F)cc4ncc31)OCC21CCC1 [Example A-162, 6-fluoro-2-methyl-7-(6-(3-(pyrrolidin-1-yl)propoxy)pyridin-3-yl)-2,9-dihydro-1H-spiro[8-oxa-2,4,10a-triazanaphtho[2,1,8-cde]azulene-10,1′-cyclobutan]-1-one]	0.36
C[C@H]1COc2c(-c3ccc(OCCCN4CCC5(CC4)COC5)nc3)c(F)cc3ncc4c(c23)n1c(=O)n4C [Example A-171, (S)-7-(6-(3-(2-oxa-7-azaspiro[3.5]nonan-7-yl)propoxy)pyridin-3-yl)-6-fluoro-2,10-dimethyl-9,10-dihydro-8-oxa-2,4,10a-triazanaphtho[2,1,8-cde]azulen-1(2H)-one]	0.42
Cn1c(=O)n2c3c4c(c(-c5ccc(OCCCN6CCCCC6)nc5)ccc4ncc31)OCC21CCC1 [Example A-176, 2-methyl-7-(6-(3-(piperidin-1-yl)propoxy)pyridin-3-yl)-2,9-dihydro-1H-spiro[8-oxa-2,4,10a-triazanaphtho[2,1,8-cde]azulene-10,1′-cyclobutan]-1-one]	0.17
C[C@H]1COc2c(-c3ccc(OCCCN(C)C)nc3)ccc3ncc4c(c23)n1c(=O)n4C [Example A-178, (S)-7-(6-(3-(dimethylamino)propoxy)pyridin-3-yl)-2,10-dimethyl-9,10-dihydro-8-oxa-2,4,10a-triazanaphtho[2,1,8-cde]azulen-1(2H)-one]	0.25
CN(C)CCCOc1ccc(-c2ccc3ncc4c5c3c2OCC2(CC2)n5c(=O)n4C)cn1 [Example A-179, 7-(6-(3-(dimethylamino)propoxy)pyridin-3-yl)-2-methyl-2,9-dihydro-1H-spiro[8-oxa-2,4,10a-triazanaphtho[2,1,8-cde]azulene-10,1′-cyclopropan]-1-one]	0.37
CN(C)CCCOc1ccc(-c2ccc3ncc4c5c3c2OCC(C)(C)n5c(=O)n4C)cn1 [Example A-180, 7-(6-(3-(dimethylamino)propoxy)pyridin-3-yl)-2,10,10-trimethyl-9,10-dihydro-8-oxa-2,4,10a-triazanaphtho[2,1,8-cde]azulen-1(2H)-one]	0.26
C[C@@H]1COc2c(-c3ccc(OCCCN(C)C)nc3)ccc3ncc4c(c23)n1c(=O)n4C [Example A-181, (R)-7-(6-(3-(dimethylamino)propoxy)pyridin-3-yl)-2,10-dimethyl-9,10-dihydro-8-oxa-2,4,10a-triazanaphtho[2,1,8-cde]azulen-1(2H)-one]	0.72
CN(C)CCCOc1ccc(-c2ccc3ncc4c5c3c2OCC2(CCC2)n5c(=O)n4C)cn1 [Example A-185, 7-(6-(3-(dimethylamino)propoxy)pyridin-3-yl)-2-methyl-2,9-dihydro-1H-spiro[8-oxa-2,4,10a-triazanaphtho[2,1,8-cde]azulene-10,1′-cyclobutan]-1-one]	0.25
CC[C@H]1COc2c(-c3ccc(OCCCN4CCCCC4)nc3)ccc3ncc4c(c23)n1c(=O)n4C [Example A-186, (S)-10-ethyl-2-methyl-7-(6-(3-(piperidin-1-yl)propoxy)pyridin-3-yl)-9,10-dihydro-8-oxa-2,4,10a-triazanaphtho[2,1,8-cde]azulen-1(2H)-one]	0.38
CC[C@@H]1COc2c(-c3ccc(OCCCN4CCCCC4)nc3)ccc3ncc4c(c23)n1c(=O)n4C [Example A-187, (R)-10-ethyl-2-methyl-7-(6-(3-(piperidin-1-yl)propoxy)pyridin-3-yl)-9,10-dihydro-8-oxa-2,4,10a-triazanaphtho[2,1,8-cde]azulen-1(2H)-one]	0.22
CC[C@@H]1COc2c(-c3ccc(OCCCN(C)C)nc3)ccc3ncc4c(c23)n1c(=O)n4C [Example A-188, (R)-7-(6-(3-(dimethylamino)propoxy)pyridin-3-yl)-10-ethyl-2-methyl-9,10-dihydro-8-oxa-2,4,10a-triazanaphtho[2,1,8-cde]azulen-1(2H)-one]	0.4
